Patent US5036091A, “3-Aryloxazolidinone derivatives, process for their preparation and their use in therapy” (Delalande S.A., priority 1989, dated 1991)

How the values were obtained:
[1] = test system: 5-HTP potentialisation; experiment: 5-HTP potentialisation assay in rat (antidepressive activity); type: in vivo; details: po, compound given orally, 5-HTP intra-peritoneal 1 h after the first treatment, read-out: ED50 (dose which brings about in 50% of the animals generalized shakings or stereotypies consecutive to 5-HTP)
Description: Int. Pharmacodyn. (1982), 259, 194-221. The dose of product which, when given orally, brings about in 50% of the animals (ED50) the appearance of generalized shakings or of stereotypies (trinklings, shakes of head) consecutive to the administration by intra-peritoneal route 1 h after the first treatment of 5-hydroxy-tryptophane (5-HTP) is determined in rat.

[2] = acute toxicity in mouse; details: in vivo, po, method of Litchfield and Wilcoxon

SMILES | ED50 [1] [mg/kg] | LD50 [2] [mg/kg]
COCC1CN(c2ccc(OCCC(C)O)cc2)C(=O)O1 (racemic) [MD370047, 3-[4-(3-hydroxybutoxy)phenyl]-5-methoxymethyl-2-oxazolidinone] | 1.9 | –
COCC1CN(c2ccc(OCCC(O)C(F)(F)F)cc2)C(=O)O1 (racemic) [MD370167, 3-[4-(4,4,4-trifluoro-3-hydroxybutoxy)phenyl]-5-methoxymethyl-2-oxazolidinone] | 1.1 | –
COC[C@H]1CN(c2ccc(CCCC(C)O)cc2)C(=O)O1 (stereo partly drawn) [MD230082, 3-[4-(4-hydroxypentyl)phenyl]-5(R)-methoxymethyl-2-oxazolidinone] | 1.1 | –
CCOC[C@H]1CN(c2ccc(OCC[C@@H](O)C(F)(F)F)cc2)C(=O)O1 [MD230197] | 2.4 | –
COC[C@H]1CN(c2ccc(OCC3CCCC3O)cc2)C(=O)O1 (stereo partly drawn) [MD230201, 3-[4-(1-hydroxy-2-cyclopentylmethoxy)phenyl]-5(R)-methoxymethyl-2-oxazolidinone] | 1.6 | –
COC[C@H]1CN(c2ccc(CCC[C@@H](C)O)cc2)C(=O)O1 [MD230238, 3-[4-(4(R)-hydroxypentyl)phenyl]-5(R)-methoxymethyl-2-oxazolidinone] | 1.9 | –
COC[C@H]1CN(c2ccc(OCC[C@@H](C)O)cc2)C(=O)O1 [MD370120, 3-[4-(3(R)-hydroxybutoxy)phenyl]-5(R)-methoxymethyl-2-oxazolidinone] | 0.83 | 1400
COC[C@H]1CN(c2ccc(OCC[C@H](C)O)cc2)C(=O)O1 [MD370122, 3-[4-(3(S)-hydroxybutoxy)phenyl]-5(R)-methoxymethyl-2-oxazolidinone] | 0.68 | –
COC[C@H]1CN(c2ccc(OCC[C@@H](O)C(F)(F)F)cc2)C(=O)O1 [MD370503, 3-[4-(4,4,4-trifluoro-3(R)-hydroxybutoxy)phenyl]-5(R)-methoxymethyl-2-oxazolidinone] | 0.14 | 2500
COC[C@H]1CN(c2ccc(OCC[C@H](O)C(F)(F)F)cc2)C(=O)O1 [MD370504, 3-[4-(4,4,4-trifluoro-3(S)-hydroxybutoxy)phenyl]-5(R)-methoxymethyl-2-oxazolidinone] | 1.8 | –
Cc1cccc(N2CC(CO)OC2=O)c1 (stereo not shown) [TOLOXATONE, reference compound] | 30 | –
